Like-named read-outs stand apart in the source and are kept apart here.
How the values were obtained:
PSA = assay: Screening SSIA by homogeneous PSA immunoassay; assay type: biochemical
Experimental: This example presents one method used for testing of candidate compounds for functionality as SSIA in assays of the present disclosure. Testing was conducted in a model screening immunoassay of the protein PSA. Mouse anti-PSA tests were run using a 96-well microtiter plate format. […] The plate was incubated at 37° C. for 10 minutes. A 5 μL aliquot of the test compound (various concentrations) was added to each well. Chemiluminescence was triggered by the addition of 100 μL of a solution of trigger solution A. The chemiluminescent flash was integrated for 5 seconds after the addition of the trigger solution using a Luminoskan Asent® plate luminometer, (Thermo Fischer Scientific, Inc., Waltham, Mass.).
It is desirable that the improvement factor be at least 2 (S5/S0≧ about 20-30) and more desirable that improvement factor be at least 5 (S5/S0≧ about 50), yet more desirable that S5/S0 be ≧100 in the present screen.

biotinylated HRP = target: T1, biotinylated HRP (Armoracia rusticana, UniProt P00433); assay: Model system for selection of SSIA (M280 btn-BSA-AK1-streptavidin particles + Btn-HRP:HRP); assay type: biochemical
T1 construct: purchased Roche Diagnostics, Indianapolis, Ind., USA
T1 sequence (P00433 31-338 limits assumed): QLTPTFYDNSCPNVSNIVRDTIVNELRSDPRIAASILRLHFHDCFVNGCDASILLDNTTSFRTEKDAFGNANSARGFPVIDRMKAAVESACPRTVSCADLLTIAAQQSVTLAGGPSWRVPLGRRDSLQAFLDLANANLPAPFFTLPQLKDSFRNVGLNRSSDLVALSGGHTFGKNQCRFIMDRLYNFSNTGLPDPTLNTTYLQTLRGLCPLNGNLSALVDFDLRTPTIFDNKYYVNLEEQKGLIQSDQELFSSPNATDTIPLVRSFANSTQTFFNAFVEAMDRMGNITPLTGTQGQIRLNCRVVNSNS
Experimental: The model system uses a microparticle conjugated to BSA (bovine serum albumin) labeled with a […] and acridan ketenedithioacetal chemiluminescent label (AK1) as the chemiluminescent-labeled sbp, and biotinylated HRP as the activator-labeled specific binding pair. In the model system, varying amounts of Btn-HRP is added to the chemiluminescent-labeled specific binding pair at 0, 1, 10, 100 and 250 ng/mL. Additional unlabeled HRP is added to reach a total HRP of concentration of 500 ng/mL in each reaction mixture. The unlabeled HRP in combination with the activator-labeled sbp was provided to the chemiluminescent-labeled sbp microparticles to emulate sample. A compound for assessment as an SSIA was also added. This reaction mixture of the model system is then triggered by addition of trigger solution in a manner of assays of the present disclosure.
To prepare the chemiluminescent-labeled sbp on microparticles, Bovine Serum Albumin (BSA) was biotinylated with 4× molar excess of biotin-LC-sulfoNHS (Pierce Biotechnology Inc., Rockford, Ill., USA). Unbound reactants were removed via desalting or dialysis. The biotin-BSA was then reacted with a 5× molar excess of acridan ketenedithioacetal AK1 in 20 mM sodium phosphate pH 7.2: DMSO 75:25, v/v) followed by desalting in the same buffer. The dual labeled (biotin and AK1) BSA was then coupled with tosyl activated M-280 microparticles (Invitrogen Corporation, Carlsbad, Calif., USA) in a 0.1 M borate buffer pH 9.5 at a concentration of ca. 20 μg labeled BSA per mg of microparticles for 16-24 h at 40° C. After coupling the microparticles were stripped for 1 h at 40° C. with 0.2 M TRIS base, 2% SDS, pH ˜11. The stripping process was repeated one additional time. Microparticles were then suspended in a 0.1% BSA/TRIS buffered saline (BSA/TBS) buffer and streptavidin (SA) was added at approximately 15 μg SA per mg microparticles. Streptavidin was mixed with the microparticles for 45-50 min at room temperature. The microparticles were then washed three times and suspended in the same BSA/TBS.
HRP, (Roche Diagnostics, Indianapolis, Ind., USA) was biotinylated with 4× molar excess of biotin-LC-sulfoNHS (Pierce Biotechnology Inc., Rockford, Ill., USA). Unbound reactants were removed via desalting or dialysis.
Each SSIA compound for assessment was dissolved in Buffer II at a concentration at least 10× of final concentration of the reaction mixture (after the addition of the trigger solution)
Paramagnetic particles (PMP): (M280)-(btn-BSA-AK)-(Streptavidin);
Sample Emulator: B-HRP:HRP; 500 ng/mL total with titration of B-HRP:HRP at Total HRP concentration of 500 ng/mL, with Btn-HRP variations: 0, 1, 10, 100 and 250 ng/mL.
SSIA: According to tables below in BUFFER II targeted to give a final concentration of 100 μM.
Trigger solution A is defined above.
5 μl of 1 mg/ml of dual-labeled (biotin and AK1) BSA M280 particles were mixed with 45 μl of working concentration SSIA in Buffer II. The assay volume brought to […] by adding 15 μl of Buffer II. 15 μl of sample containing Btn-HRP:HRP at different ratios (The amount of biotinylated-HRP varied from 0, 1, 10, 100 and 250 ng/mL) was added. The reaction mixture was incubated for 30 min at 37° C., then 100 μL of trigger solution was added and the light intensity recorded. Total volume of reaction mixture, including trigger solution was […] with a final concentration of 100 μM of SSIA.

[1] = PSA 129 ng/mL (S5) vs zero, test compound final conc. 0.122 mM
[2] = PSA 129 ng/mL (S5) vs zero, test compound final conc. 0.244 mM
[3] = PSA 129 ng/mL (S5) vs zero, test compound final conc. 122 uM

In the case of `COc1cc(C(C)(C)C)c(O)c(C(C)(C)C)c1`, the S5/S0 (PSA; [1]) is reported as 19.
With `Nc1cc(Cl)ccc1O` the S5/S0 (PSA; [2]) was 205.
In the case of `O=S(=O)([O-])CCCN1c2ccccc2Sc2ccccc21.[Na+]`, the S5/S0 (PSA; [2]) is reported as 50.
`C=CCc1ccc(O)c(OC)c1` was tested, and the S5/S0 (PSA; [2]) was 30.
In the case of `O=S(=O)([O-])CCCOCCCN1c2ccccc2Cc2ccccc21.[Na+]`, the S5/S0 (PSA; [2]) is reported as 6.
Work on `NCCNC(=O)c1ccc(NN)cc1` yielded an S5/S0 (PSA; PSA 129 ng/mL (S5) vs zero, test compound final conc. 1.22 mM) of 138.
For `CC1=C(O)C(=O)C(C)O1` (stereo not shown), the S5/S0 (PSA; PSA 129 ng/mL (S5) vs zero, test compound final conc. 1.25 mM) was 237.
Molecule `COc1ccccc1N` has an S5/S0 (PSA; [1]) of 7.
`Cn1ccnc1S` showed an S5/S0 (PSA; PSA 129 ng/mL (S5) vs zero, test compound final conc. 36.7 mM) of 102.
`Nc1ncc[nH]1` gave an S5/S0 (PSA; PSA 129 ng/mL (S5) vs zero, test compound final conc. 24.4 mM) of 14.
`Nc1ccc2[nH]ncc2c1` was tested, and the S5/S0 (PSA; PSA 129 ng/mL (S5) vs zero, test compound final conc. 12.2 mM) was 10.
With `c1ccc2c(c1)Nc1ccccc1O2` the S5/S0 (PSA; [1]) was 605.
Molecule `COC1=C(O)C(=O)O[C@@H]1[C@@H](O)CO` has an S5/S0 (PSA; [3]) of 16.
With `O=C1O[C@H]([C@@H](O)CO)C(=O)C1=O` the S5/S0 (PSA; [1]) was 26.
Work on `Nc1cccc(Cl)c1O` yielded an S5/S0 (PSA; [2]) of 300.
`O=S(=O)([O-])CCCN1c2ccccc2Cc2ccccc21.[Na+]` showed an S5/S0 (PSA; [2]) of 15.
`O=C1C=C(O)C(=O)C=C1O` was tested, and the S5/S0 (PSA; [2]) was 14.
For `OB(O)c1cc(Cl)ccc1O`, the S5/S0 (PSA; [2]) was 22.
Molecule `Nc1cc2ccccc2cc1O` has an S5/S0 (PSA; [2]) of 67.
Molecule `Nc1ccc2ccccc2c1O` has an S5/S0 (PSA; [2]) of 109.
For `Nc1cc(C[C@H](N)C(=O)O)ccc1O`, the S5/S0 (PSA; [2]) was 448.
`O=C1O[C@H]([C@@H](O)CO)C([O-])=C1O.[Na+]` gave an S5/S0 (PSA; [3]) of 9.2.
In the case of `O=C1O[C@H]([C@H](O)CO)C(O)=C1O`, the S5/S0 (PSA; [3]) is reported as 10.3.
In the case of `O[C@@H](CS)[C@@H](O)CS` [DTT], the S5/S0 (PSA; PSA 129 ng/mL (S5) vs zero, test compound final conc. 72 uM) is reported as 20.
Molecule `OCCO` [Ethylene glycol] has an S5/S0 (PSA) of 14.
In the case of `N[C@@H](CCC(=O)N[C@@H](CS)C(=O)NCC(=O)O)C(=O)O` [Glutathione], the S/S0 (biotinylated HRP; Btn-HRP 0 ng/mL vs 0, SSIA 100 μM) is reported as 1, the B-HRP0 light intensity (biotinylated HRP; Btn-HRP 0 ng/mL, total HRP 500 ng/mL, SSIA final 100 μM) is reported as 26,977 and the S1/S0 (biotinylated HRP; Btn-HRP 1 ng/mL vs 0, SSIA 100 μM) is reported as 2.1. The B-HRP1 light intensity (biotinylated HRP; Btn-HRP 1 ng/mL, total HRP 500 ng/mL, SSIA final 100 μM) was 55,719, the S2/S0 (biotinylated HRP; Btn-HRP 10 ng/mL vs 0, SSIA 100 μM) was 92 and the B-HRP10 light intensity (biotinylated HRP; Btn-HRP 10 ng/mL, total HRP 500 ng/mL, SSIA final 100 μM) was 2,480,764. For the same molecule, the S3/S0 (biotinylated HRP; Btn-HRP 100 ng/mL vs 0, SSIA 100 μM) was 323.7, the B-HRP100 light intensity (biotinylated HRP; Btn-HRP 100 ng/mL, total HRP 500 ng/mL, SSIA final 100 μM) was 8,733,068 and the S4/S0 (biotinylated HRP; Btn-HRP 250 ng/mL vs 0, SSIA 100 μM) was 369.4. For the same molecule, the B-HRP250 light intensity (biotinylated HRP; Btn-HRP 250 ng/mL, total HRP 500 ng/mL, SSIA final 100 μM) was 9,965,235, the “effect in the model system / utility as SSIA” value (biotinylated HRP; SSIA 100 μM, conclusion in words) was “no effect” and the S5/S0 (PSA; [3]) was 77.
For `N[C@@H](CS)C(=O)O` [L-Cysteine], the S5/S0 (PSA; [3]) was 22.
Work on `NN` [NH2NH2] yielded an S5/S0 (PSA; PSA 129 ng/mL (S5) vs zero, test compound final conc. 244 uM) of 15.
`O=S([O-])[O-].[Na+].[Na+]` [Na2SO3] gave an S5/S0 (PSA; PSA 129 ng/mL (S5) vs zero, test compound final conc. 15 uM) of 59.
In the case of `[N-]=[N+]=[N-].[Na+]` [NaN3], the S5/S0 (PSA; PSA 129 ng/mL (S5) vs zero, test compound final conc. 34 uM) is reported as 19.
`Cc1cc(-c2cc(C)c(N)c(C)c2)cc(C)c1N` [TMB] was tested, and the S5/S0 (PSA; PSA 129 ng/mL (S5) vs zero, test compound final conc. 61 uM) was 20.
`O=C1O[C@H]([C@@H](O)CO)C([O-])=C1O.[Na+]` [ascorbate sodium salt (ascorbate anion), ascorbate sodium salt] gave an S5/S0 (PSA; [1]) of 495.
`Nc1ccccc1O` [drawing 47] showed an S5/S0 (PSA; [1]) of 649.
For `O=C1O[C@H]([C@@H](O)CO)C(O)=C1O` [drawing 64], the S5/S0 (PSA; [3]) was 10.3.
With `O=C1O[C@H]([C@@H](O)CO)C(O)=C1O` [drawing 72] the S5/S0 (PSA; [1]) was 423.
Molecule `Oc1ccc(O)c(Cl)c1` [drawing 75] has an S5/S0 (PSA; PSA 129 ng/mL (S5) vs zero, test compound final conc. 0.111 mM) of 229.
In the case of `Oc1ccc(Cl)cc1O` [drawing 77], the S5/S0 (PSA; [2]) is reported as 409.
For `Nc1ccc(C(=O)O)cc1O` [drawing 79], the S5/S0 (PSA; [1]) was 153.

— patent US20100273189A1, “NON SEPARATION ASSAYS WITH SELECTIVE SIGNAL INHIBITORS” (BECKMAN COULTER, INC., priority 2009, published 2010)
